In article PMC12683216, “Using High‐Throughput Screening to Identify Crosslinking Peptides That Control Cell‐Mediated Matrix Degradation” (Advanced Healthcare Materials, 2025):
Like-named read-outs stand apart in the source and are kept apart here. Where a SMILES comes first, the peptide text is derived from it. [ ]: non-standard residue; d: D form. βAla = NCCC(=O)O

Assays:
Format in all cases: in vitro ADME, human
[1] = Soluble peptide degradation, Media condition (cell-conditioned media, LC-MS); conditions: 24 h, LC-MS, ratio to βFβA6
In short: (§1)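 Pooled peptide library added to medium conditioned by hUVECs or hMSCs with cells removed. Fraction remaining after 24 h measured by LC-MS (positive-ion ESI). Value is peptide peak area relative to 50 µM non-degradable βFβA6 internal standard.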

[2] = Soluble peptide degradation, Cells condition (LC-MS); conditions: human, 24 h, LC-MS, ratio to βFβA6
In short: (§2)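 Pooled synthetic TAILS-derived peptides added to hUVEC or hMSC cultures (Cells) or cell-free conditioned media (Media); MMP-14 inhibitor NSC 405 020 at 10 µM final. Samples taken at 0 and 24 h, acidified, analysed by LC-MS; peak areas normalised to 50 µM βFβA6 internal standard, 24 h/0 h gives fraction remaining.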

hUVECs = assay: as above; conditions: Figure 3B heatmap; split-and-pool libraries KLVADX1X2ASAE in media on hUVECs; 24 h; LC-MS, ratio to βFβA6; N = 2
In short: as §2

MMP-14 = assay: as above; conditions: human, with NSC 405 020 (MMP-14 inhibitor), Figure 3C, 50 µM peptide, 24 h, LC-MS, N = 6
In short: as §2

hMSCs = assay: as above; conditions: Figure 3C; individually synthesized soluble peptide, 50 µM, media on hMSCs; 24 h; LC-MS, ratio to βFβA6; N = 6
In short: as §2

[3] = Soluble peptide degradation, Media condition (cell-conditioned media, LC-MS); conditions: 24 h, LC-MS, ratio to βFβA6; remark: listed apart in the source
In short: as §1

CC(=O)NCCC(=O)N[C@@H](CCCCN)C(=O)N[C@@H](CC(C)C)C(=O)N[C@H](C(=O)N[C@@H](C)C(=O)N[C@@H](CC(=O)O)C(=O)N[C@@H](Cc1ccc(O)cc1)C(=O)N[C@@H](Cc1c[nH]c2ccccc12)C(=O)N[C@@H](C)C(=O)N[C@@H](CO)C(=O)N[C@@H](C)C(=O)N[C@@H](CCC(=O)O)C(=O)NCCC(N)=O)C(C)C [KLVAD-YW] (Ac-[βAla]KLVADYWASAE[βAla]-NH2)
Fraction of peptide remaining after 24 hours: hMSC Media ([1]; Figure 3C, individually synthesized soluble peptide, 50 µM, hMSC-conditioned media without cells, N = 6): 0.91 | remaining at 24 h ([1]; human, hMSC-conditioned media without cells (Media condition), Figure 3B heatmap, split-and-pool libraries KLVADX1X2ASAE in hMSC-conditioned media without cells, N = 2, read-out: Fraction of peptide remaining after 24 hours: hMSC Media): 78% | remaining at 24 h ([2]; hMSCs in culture with fresh media (Cells condition), Figure 3B heatmap, split-and-pool libraries KLVADX1X2ASAE (19 or 38 peptides per library) in media on hMSCs, N = 2, read-out: Fraction of peptide remaining after 24 hours: hMSC Cells): 53% | remaining at 24 h, 50 µM ([2]; hUVECs in culture with fresh media (Cells condition), Figure 3C, individually synthesized soluble peptide, 50 µM, media on hUVECs, N = 6, read-out: Fraction of peptide remaining after 24 hours: hUVEC Cells): 72% | Fraction of peptide remaining after 24 hours: hUVEC Cells (hUVECs): 0.86 | remaining at 24 h, 50 µM (MMP-14; media on hMSCs with MMP-14 inhibitor NSC 405 020 10 µM, read-out: Fraction of peptide remaining after 24 hours: hMSC +Inhibitor): 76% | remaining at 24 h, 50 µM (MMP-14; media on hUVECs with MMP-14 inhibitor NSC 405 020 10 µM, read-out: Fraction of peptide remaining after 24 hours: hUVEC +Inhibitor): 98% | Fraction of peptide remaining after 24 hours: hMSC Cells (hMSCs): 0.4 | Fraction of peptide remaining after 24 hours: hUVEC Media ([3]; Figure 3B heatmap, split-and-pool libraries KLVADX1X2ASAE in hUVEC-conditioned media without cells, N = 2): 0.96 | Fraction of peptide remaining after 24 hours: hUVEC Media ([3]; Figure 3C, individually synthesized soluble peptide, 50 µM, hUVEC-conditioned media without cells, N = 6): 0.92
